These results are taken from the METLIN SMRT retention time set (Domingo-Almenara et al. 2019).

This series in a line: gradient 5% acetonitrile 3 min, to 50% in 2 min, to 85% in 15 min, held 3 min, 100 µL/min. The following applies: column: Zorbax Extend-C18 2.1 x 50 mm; eluents: water / acetonitrile, 0.1% formic acid. Summed up: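 The mobile phases were water and acetonitrile, each with 0.1% formic acid, pumped at 100 μL/min through a Zorbax Extend-C18 column (2.1 × 50 mm, 1.8 μm). Pure standards were injected as mixtures of ~100 molecules and detected by a quadrupole time-of-flight mass spectrometer in positive and negative ionization mode. Retention time came from computationally picked adduct peaks, each inspected by hand.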
As to `CC(C)S(=O)(=O)c1ccc(Cc2nnc(NC(=O)c3ccc4ncsc4c3)o2)cc1`, the RP-LC retention time came to 641 s. As for `O=C(NC1(c2nc(-c3cccnc3)no2)CCCCC1)c1ccc(F)c(Cl)c1`, the figure is 1030 s; as for `O=C(CSc1nnc(NC(=O)Cc2cccc3ccccc23)s1)NCC1CCCO1` (stereo unspecified), 715 s. `CCC(C)(C)NS(=O)(=O)c1cc(-c2nc(C)cs2)n(CC(=O)N2CCCC2)c1` came in with an RP-LC retention time of 967 s. Compound `Cc1ccc(C)c(-c2csc(Nc3ccc(Cl)cc3)n2)c1` came in with an RP-LC retention time of 1340 s. To `CC1(C(=O)NCc2ccccc2)CCCN(C(=O)Nc2cccc(Cl)c2)C1` (stereo unspecified) belongs 966 s; to `Cc1cc2nn(CC(=O)Nc3ccc(Br)cc3F)c(=O)n2c(-c2ccc(F)cc2)n1`, 952 s; to `CN(C)c1ccc(CNC(=O)c2nnc(-c3ccc(S(=O)(=O)N(C)C)cc3)o2)cc1`, 658 s. With `Cc1csc(NC(=O)Cn2c(=O)n(C(C)C)c3ccc(-c4noc(C)n4)cc32)n1`, the RP-LC retention time was 780 s. The compound `COc1ccccc1CNS(=O)(=O)c1cc(-c2cc(C(F)(F)F)on2)sc1C` displayed an RP-LC retention time of 1120 s.

`CCOC(=O)C(=O)NCc1ccccc1Cl` registered an RP-LC retention time of 735 s.

`CC(C)Cn1c(=O)c(N2CCN(C(=O)CCCc3ccccc3)CC2)nc2ccncc21` showed an RP-LC retention time of 742 s. `CCc1ccc2nc(C)cc(C(N)=O)c2c1` yielded an RP-LC retention time of 561 s.

In turn, `COc1ccc(OC)c(-c2cc(C(=O)N3CCN(Cc4ccsc4)CC3)n(C)n2)c1` returned an RP-LC retention time of 580 s. As for `NS(=O)(=O)c1ccc(CNC(=O)CCCn2cnc(-c3ccc(F)cc3)cc2=O)cc1`, the figure is 652 s; as for `COC(=O)c1cccc(Nc2c(-c3cccc(Br)c3)nc3cnccn23)c1`, 918 s. Compound `Cc1nn(S(=O)(=O)N(C)C)c(C)c1Br` registered an RP-LC retention time of 881 s.

As for `Cc1ccc2c(Nc3ccc4c(c3)OCCO4)c(C(=O)N3CCC(C)CC3)cnc2n1`, the RP-LC retention time turned out to be 649 s. `O=C(CCc1nnc2c(N3CCCCC3)nc3ccccc3n12)NCc1ccccc1F` showed an RP-LC retention time of 903 s.

As to `O=C(NCc1ccccc1Cl)C1c2ccccc2CCN1C(=O)C1CC1` (stereo unspecified), the RP-LC retention time turned out to be 881 s. On to `CCOC(=O)N1CCN(c2cc(-c3nc(-c4cccc(OC)c4OC)no3)c3ccccc3n2)CC1`, for which the RP-LC retention time stood at 1250 s. As to `O=C(CCc1c(-c2ccc(F)cc2)nc2ccccn12)Nc1cc(F)ccc1F`, the RP-LC retention time turned out to be 697 s. As for `CCN(CC)S(=O)(=O)c1cc(-c2nc(C(C)(C)C)cs2)cs1`, the figure is 1350 s; as for `CCNS(=O)(=O)c1cc(-c2c(CC)noc2NC(C)=O)ccc1C`, 698 s. To `CC(C)(N)c1ncc(-c2ccc(OC(F)(F)F)cc2)[nH]1` belongs 693 s; to `CCOC(=O)c1ccc(NC(=O)Cn2cnc3cc4c(cc32)OCCO4)cc1`, 662 s; to `COC(=O)c1ccc(-c2nc3cnccn3c2Nc2ccc(C)cc2C)cc1`, 1010 s.

Compound `N#Cc1cccc(C(=O)Nc2cnn(-c3ncc(N4CCCCC4)cn3)c2)c1` returned an RP-LC retention time of 847 s. As for `O=C(NCC(=O)N1CCCc2ccccc21)c1ccccc1`, the figure is 777 s; as for `CCN1CCCc2cc(C(=O)NCc3ccc(OC)cc3OC)sc21`, 973 s. `Cc1ccc(Cc2nc(-c3ccnc(N4CCOCC4)c3)no2)cc1` yielded an RP-LC retention time of 908 s. `COC(=O)c1cnc2nc(C)ccc2c1Nc1ccc(S(N)(=O)=O)cc1`: the RP-LC retention time stood at 586 s.

In turn, `CCOc1ccc(-c2cn3ccn(-c4ccc(Cl)cc4)c(=O)c3n2)cc1` showed an RP-LC retention time of 962 s. For `CCOc1ccc(-n2nc(CO)c(C(=O)NC3CCCC3)n2)cc1`, the RP-LC retention time stood at 1020 s.

The compound `CS(=O)(=O)Nc1cccc(NC(=O)c2ccc(=O)n(Cc3ccccc3)n2)c1` gave an RP-LC retention time of 718 s.

With `O=c1c2cnc3nc(-c4ccccc4)nn3c2ccn1CCc1c[nH]c2ccc(Cl)cc12`, the RP-LC retention time is 997 s.

On to `O=C(c1nnc(-c2ccc(S(=O)(=O)N3CCCC3)cc2)o1)N1CCCCCC1`, for which the RP-LC retention time is 902 s. As for `CCOC(=O)C1CCN(c2ncnc3c2cnn3-c2ccccc2)CC1`, the figure is 944 s. To `O=C(NCCCN1CCCC1)c1ccc2c(c1)NC(=O)C1CCCCN21` (stereo unspecified) belongs 588 s. As for `O=C(O)C1CCCN(CCC=C(c2ccccc2)c2ccccc2)C1` (stereo unspecified), the figure is 783 s; as for `COc1ccc(C2Cn3nnc(-c4nc(C(C)C)no4)c3CO2)cc1` (stereo unspecified), 936 s; as for `CCN1C(=O)C2CCCCN2c2ccc(C(=O)NCc3ccccc3)cc21` (stereo unspecified), 908 s.

As for `CC1=NS(=O)(=O)N(Cc2ccccc2)C=C1C(=O)OCc1ccc(F)c(F)c1`, the RP-LC retention time amounted to 1100 s. As for `CC1(C)Cc2cccc(OCC(=O)NCC3CN(c4ccccc4)C(=O)O3)c2O1` (stereo unspecified), the figure is 796 s; as for `O=C(NCCc1csc(C2CCCN(C(=O)C3(c4ccccc4)CC3)C2)n1)C1CC1` (stereo unspecified), 762 s.

Consider `COc1cccc(-n2c(=O)c(C(=O)NC(C)c3ccccc3)c(O)c3cccnc32)c1` (stereo unspecified), for which the RP-LC retention time stood at 1180 s. As for `COc1ccc(Cn2nccc2NC(=O)c2cc(=O)c3cc(Cl)ccc3o2)cc1`, the figure is 866 s; as for `O=C([C@@H]1C[C@H](F)CN1C(=O)c1ccccc1)N1CCOCC1`, 590 s.

The compound `COCCCNC(=O)C(C)n1c(=O)c(C(F)(F)F)nc2cc(C)c(C)cc21` (stereo unspecified) showed an RP-LC retention time of 1010 s. In turn, `CC1=NS(=O)(=O)N(C)C=C1C(=O)OCc1nc(-c2ccc(C(F)(F)F)cc2)no1` registered an RP-LC retention time of 1060 s. Turning to `Cc1cc(C)cc(NC(=O)NCC(c2cccnc2)c2cn(C)c3ccccc23)c1` (stereo unspecified), the RP-LC retention time was 711 s.

The compound `COc1ccc(NC(=O)NCCc2cn(C)c3ncccc23)c(OC)c1` displayed an RP-LC retention time of 640 s. As for `O=C(CCCS(=O)(=O)Cc1ccccc1)NCc1ccccc1`, the figure is 694 s; as for `c1cnn(-c2cc(N3CCCC3)ncn2)c1`, 678 s. To `O=C(NCc1ccccc1)c1nc2ccccn2c1-c1ccsc1` belongs 842 s; to `COc1cccc(NC(=O)c2cc(C)n3nc(C)cc3n2)c1`, 928 s. As for `CCC(=O)Nc1ccc(C2(C(=O)NCC(C)C)CCCCC2)cc1`, the RP-LC retention time stood at 859 s.

Take `Cc1sc(-c2cc(C(F)(F)F)on2)cc1S(=O)(=O)N1CCC2(CC1)OCCO2`: the RP-LC retention time amounted to 1120 s. Turning to `CCc1cc(=O)n(CC(=O)NCc2cccc(OC)c2)c(N)n1`, the RP-LC retention time was found to be 584 s. To `Cc1ccc2[nH]c(C(=O)NC3CC3)cc2c1` belongs 782 s; to `c1cc(-c2noc(COC3CCCN(Cc4ccoc4)C3)n2)ccn1` (stereo unspecified), 570 s; to `O=C(Nc1ccc2nc3n(c(=O)c2c1)CCCC3)Nc1ccc(F)cc1F`, 690 s. In turn, `CN(C)c1cc(OC2CCN(C(=O)c3c[nH]c4ccccc34)C2)ncn1` (stereo unspecified) had an RP-LC retention time of 604 s. `O=C(NCCCc1ccccc1)C1(CCO)CCN(c2ncccn2)C1` (stereo unspecified) returned an RP-LC retention time of 651 s. The compound `CN1CCn2cc(S(=O)(=O)Nc3cccc(Cl)c3)cc2C1=O` showed an RP-LC retention time of 709 s. Take `Cn1cc(-c2noc(-c3ccc(F)cc3)n2)ccc1=O`: the RP-LC retention time was 827 s. `CCCc1noc(-c2cccnc2N2CCCN(Cc3ccc(Cl)cc3)CC2)n1`: the RP-LC retention time amounted to 754 s. As for `CCc1cccc(C)c1NC(=O)COc1cc(C)nc(N2CCN(c3ccccc3)CC2)n1`, the figure is 946 s. Regarding `O=C(CCc1nc(CSc2nc3ccccc3o2)no1)Nc1nc(-c2ccccc2)cs1`, the RP-LC retention time was determined as 1030 s. As for `O=C(Nc1ccccc1)N1C[C@@H]2C(=O)N(CCc3ccccc3)C(=O)[C@@H]2C1`, the figure is 789 s; as for `Cc1noc(C)c1-c1ccc(S(=O)(=O)N2CCN(c3ccccn3)CC2)cc1`, 676 s; as for `COCc1cc(=O)n(Cc2ccccc2F)c(N2CCCC2)n1`, 790 s.

With `CCCNc1cc(N2CCC(CCC(=O)N(C)Cc3ccccc3)CC2)ncn1`, the RP-LC retention time is 702 s. As for `CCC(=O)N1c2ccccc2CC1c1nc(C(C)C)no1` (stereo unspecified), the figure is 913 s. To `O=C(c1ccccc1Cl)N1CC2CC(C1)c1cccc(=O)n1C2` (stereo unspecified) belongs 596 s; to `Fc1cc(F)c2nc(NCc3ccco3)sc2c1`, 879 s. For `O=C(NCc1ccco1)C1CCN(c2nc3ccc(-c4cncnc4)nc3s2)CC1`, the RP-LC retention time is 743 s.

For `O=C(NCC1CCCO1)c1cc2cccnc2n(Cc2ccccc2F)c1=O` (stereo unspecified), the RP-LC retention time was found to be 932 s. As for `O=C(NCCOc1ccc(F)cc1)C(c1ccccc1)n1cccc1` (stereo unspecified), the figure is 927 s; as for `Cc1cccc(-c2noc(Cc3nc(-c4ccccc4)cs3)n2)c1`, 1260 s. As for `COc1ccc(C(=O)N2CCN(c3ccc(-c4nc(C)cs4)cn3)CC2)cc1F`, the figure is 819 s.
